Patent US20220402948A1, “EGFR INHIBITOR, COMPOSITION AND PREPARATION METHOD THEREFOR” (BETTA PHARMACEUTICALS CO., LTD., priority 2019, published 2022)

What was measured:
[1] = target: EGFRΔ19del/T790M/C797S (Homo sapiens, UniProt P00533, T790M/C797S, form not given); experiment: EGFR Δ19del/T790M/C797S kinase test (mobility variation analysis, Caliper EZ Reader); format: biochemical; details: kinase enzymatic activity, Table 1
How it was run: (§1)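 Read-out is substrate-to-product conversion by mobility shift, stopped after incubation at room temperature with ATP and substrate, following a 10-minute room-temperature compound–enzyme pre-incubation. IC50 obtained by four-parameter variable-slope fitting of inhibition normalized between enzyme-free and uninhibited controls.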

[2] = target: EGFR WT (Homo sapiens, UniProt P00533); experiment: EGFR WT kinase test (mobility variation analysis, Caliper EZ Reader); format: biochemical; details: kinase enzymatic activity, Table 1
Sequence of EGFR WT (P00533 25-1210): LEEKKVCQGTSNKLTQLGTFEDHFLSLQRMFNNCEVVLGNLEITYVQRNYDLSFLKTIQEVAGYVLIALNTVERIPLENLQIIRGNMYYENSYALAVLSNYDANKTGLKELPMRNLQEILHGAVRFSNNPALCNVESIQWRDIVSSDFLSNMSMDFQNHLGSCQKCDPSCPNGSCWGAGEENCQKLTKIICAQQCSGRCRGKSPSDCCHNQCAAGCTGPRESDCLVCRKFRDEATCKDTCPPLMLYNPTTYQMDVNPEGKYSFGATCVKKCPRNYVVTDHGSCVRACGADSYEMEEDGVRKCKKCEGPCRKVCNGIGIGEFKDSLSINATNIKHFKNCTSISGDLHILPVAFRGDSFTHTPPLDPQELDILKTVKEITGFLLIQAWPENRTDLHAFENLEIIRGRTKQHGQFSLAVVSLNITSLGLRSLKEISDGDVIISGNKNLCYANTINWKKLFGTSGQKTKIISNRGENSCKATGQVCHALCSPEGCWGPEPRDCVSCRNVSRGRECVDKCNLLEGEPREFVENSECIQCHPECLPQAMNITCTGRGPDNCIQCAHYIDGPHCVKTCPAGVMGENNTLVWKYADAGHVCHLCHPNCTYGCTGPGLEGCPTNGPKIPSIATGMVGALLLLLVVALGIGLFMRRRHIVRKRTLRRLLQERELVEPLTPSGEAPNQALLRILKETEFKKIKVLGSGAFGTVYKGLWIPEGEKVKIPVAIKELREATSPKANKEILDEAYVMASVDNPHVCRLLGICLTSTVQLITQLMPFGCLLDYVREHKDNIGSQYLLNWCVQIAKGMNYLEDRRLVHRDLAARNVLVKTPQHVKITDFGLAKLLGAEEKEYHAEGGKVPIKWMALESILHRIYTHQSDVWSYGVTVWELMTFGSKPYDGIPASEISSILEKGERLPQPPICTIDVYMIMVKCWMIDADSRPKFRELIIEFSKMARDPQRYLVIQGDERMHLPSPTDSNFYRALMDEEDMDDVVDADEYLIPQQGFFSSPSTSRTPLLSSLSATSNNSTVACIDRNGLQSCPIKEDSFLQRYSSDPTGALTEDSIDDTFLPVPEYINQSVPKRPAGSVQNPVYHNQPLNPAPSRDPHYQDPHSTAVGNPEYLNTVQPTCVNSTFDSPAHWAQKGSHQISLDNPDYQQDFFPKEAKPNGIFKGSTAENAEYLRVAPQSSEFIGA
How it was run: as §1

[3] = target: IGF1R (Homo sapiens, UniProt P08069); experiment: IGF1R kinase test (mobility variation analysis, Caliper EZ Reader); format: biochemical; details: kinase enzymatic activity, Table 1; read-out: EGFR IGF1R IC50
Sequence of IGF1R (P08069 31-1367, species assumed): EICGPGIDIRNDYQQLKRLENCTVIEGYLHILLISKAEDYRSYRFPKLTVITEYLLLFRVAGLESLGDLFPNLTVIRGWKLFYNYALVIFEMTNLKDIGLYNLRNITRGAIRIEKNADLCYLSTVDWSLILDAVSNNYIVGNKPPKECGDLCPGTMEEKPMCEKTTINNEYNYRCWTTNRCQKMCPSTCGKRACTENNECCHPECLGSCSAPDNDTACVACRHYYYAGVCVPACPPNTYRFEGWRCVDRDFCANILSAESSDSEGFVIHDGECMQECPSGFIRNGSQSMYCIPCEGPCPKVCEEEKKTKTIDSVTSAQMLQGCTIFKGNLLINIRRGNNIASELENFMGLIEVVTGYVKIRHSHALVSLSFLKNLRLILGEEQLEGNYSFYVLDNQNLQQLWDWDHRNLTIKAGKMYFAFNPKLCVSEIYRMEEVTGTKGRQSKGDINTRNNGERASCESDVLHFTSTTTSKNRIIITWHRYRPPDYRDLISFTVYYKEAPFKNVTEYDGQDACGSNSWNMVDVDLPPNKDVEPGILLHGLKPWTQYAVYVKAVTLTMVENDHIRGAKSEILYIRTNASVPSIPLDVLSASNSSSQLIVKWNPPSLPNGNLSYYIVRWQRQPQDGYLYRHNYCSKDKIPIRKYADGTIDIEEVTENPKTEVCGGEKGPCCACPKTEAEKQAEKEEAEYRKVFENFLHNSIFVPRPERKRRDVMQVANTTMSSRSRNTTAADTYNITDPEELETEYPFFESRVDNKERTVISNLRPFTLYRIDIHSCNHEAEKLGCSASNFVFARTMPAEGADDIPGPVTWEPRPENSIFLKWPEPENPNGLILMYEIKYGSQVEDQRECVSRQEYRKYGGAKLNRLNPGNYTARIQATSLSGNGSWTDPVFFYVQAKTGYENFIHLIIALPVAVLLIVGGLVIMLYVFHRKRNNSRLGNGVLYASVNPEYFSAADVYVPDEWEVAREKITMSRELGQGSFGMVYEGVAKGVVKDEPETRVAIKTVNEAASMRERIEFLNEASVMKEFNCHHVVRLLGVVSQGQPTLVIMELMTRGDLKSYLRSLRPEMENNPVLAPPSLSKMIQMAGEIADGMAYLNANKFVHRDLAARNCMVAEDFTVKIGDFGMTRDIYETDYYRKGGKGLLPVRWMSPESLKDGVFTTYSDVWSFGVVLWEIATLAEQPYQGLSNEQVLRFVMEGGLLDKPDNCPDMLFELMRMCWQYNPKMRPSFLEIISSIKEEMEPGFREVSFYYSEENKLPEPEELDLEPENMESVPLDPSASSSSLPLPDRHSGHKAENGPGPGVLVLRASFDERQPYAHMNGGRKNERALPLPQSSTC
How it was run: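 Mobility-shift readout of substrate conversion, normalised to positive (no compound) and negative (no kinase) controls, gives % inhibition and IC50 by four-parameter fit. Compounds, 3-fold dilutions over 10 concentrations starting at 3000 nM, preincubated 10 min with kinase before ATP/substrate start; room temperature.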

[4] = target: Ba/F3 cells with EGFR Δ19del/T790M/C797S mutation gene stably overexpressed (Homo sapiens, UniProt P00533, T790M/C797S, cells depend on it, form not given); experiment: Ba/F3-Δ19del/T790M/C797S cell proliferation assay (CellTiter Glo, 72 hours); format: cell-based; details: Table 2, read-out: EGFR Δ19del/T790M/C797S IC50
Sequence of Ba/F3 cells with EGFR Δ19del/T790M/C797S mutation gene stably overexpressed (P00533 with tags, fused parts or gaps DEL746-750/T790M/C797S, form open): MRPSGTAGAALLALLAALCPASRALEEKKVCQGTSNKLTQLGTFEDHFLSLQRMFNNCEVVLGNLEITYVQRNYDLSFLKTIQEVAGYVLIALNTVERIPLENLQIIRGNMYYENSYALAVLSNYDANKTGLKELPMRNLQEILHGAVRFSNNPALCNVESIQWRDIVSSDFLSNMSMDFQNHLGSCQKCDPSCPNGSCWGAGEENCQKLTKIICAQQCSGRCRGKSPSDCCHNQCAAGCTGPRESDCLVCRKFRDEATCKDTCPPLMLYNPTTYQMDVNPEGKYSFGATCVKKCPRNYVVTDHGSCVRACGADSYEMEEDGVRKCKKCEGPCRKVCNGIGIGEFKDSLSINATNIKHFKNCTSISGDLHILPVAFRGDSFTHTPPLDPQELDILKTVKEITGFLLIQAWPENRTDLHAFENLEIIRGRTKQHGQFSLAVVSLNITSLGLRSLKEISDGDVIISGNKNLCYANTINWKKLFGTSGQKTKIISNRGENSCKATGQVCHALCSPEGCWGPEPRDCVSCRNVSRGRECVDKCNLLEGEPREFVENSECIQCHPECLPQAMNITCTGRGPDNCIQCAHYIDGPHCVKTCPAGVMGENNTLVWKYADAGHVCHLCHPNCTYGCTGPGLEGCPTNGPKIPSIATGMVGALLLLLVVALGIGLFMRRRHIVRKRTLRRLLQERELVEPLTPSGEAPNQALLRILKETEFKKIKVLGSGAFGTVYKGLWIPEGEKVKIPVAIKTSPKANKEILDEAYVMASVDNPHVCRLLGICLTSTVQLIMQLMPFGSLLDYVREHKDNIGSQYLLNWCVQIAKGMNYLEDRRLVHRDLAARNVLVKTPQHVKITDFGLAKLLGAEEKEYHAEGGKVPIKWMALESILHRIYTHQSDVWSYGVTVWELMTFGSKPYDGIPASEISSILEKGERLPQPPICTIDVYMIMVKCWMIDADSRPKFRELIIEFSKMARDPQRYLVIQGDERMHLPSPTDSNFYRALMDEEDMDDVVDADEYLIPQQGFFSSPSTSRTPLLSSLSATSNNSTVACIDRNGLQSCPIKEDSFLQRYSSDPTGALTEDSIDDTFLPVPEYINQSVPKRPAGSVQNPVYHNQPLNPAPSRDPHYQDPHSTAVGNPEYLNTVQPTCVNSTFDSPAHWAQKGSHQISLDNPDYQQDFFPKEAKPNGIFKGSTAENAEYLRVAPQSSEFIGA
Method: (§2) Cell line: Ba/F3 cells with EGFR Δ19del/T790M/C797S mutation gene stably overexpressed named Ba/F3-Δ119del/T90M/C797S, and A431 and Ba/F3-EGFR wild-type cell line.
(§3) a) Centrifuge the growth cells in logarithmic phase at 1000 rpm for 5 minutes, resuspend the cells in culture medium, and then count the cells;
(§4) b) Inoculate the cells into a 96-well cell culture plate with a density of 2000 cells/well;
(§5) b) Incubate cells in an incubator for another 72 hours.
(§6) a) Take out the 96-well cell culture plate and add 50 μl CTG reagent (CellTiter Glo kit, promega, Cat #G7573);
(§7) b) Shake the plate for 2 minutes and let cool at room temperature for 10 minutes;
(§8) c) Read luminous signal value with PerkinElmer reader,
(§9) Analysis of Experimental Data
(§10) The data were analyzed by GraphPad Prism 6.0 software to obtain the fitting curve of compound activity.
(§11) Y=Min+(Max−Min)/(1+10^((Log IC50−X)*slope));
(§12) X: Logarithm of compound concentration; Y: luminous signal.

[5] = test system: A431; experiment: A431 cell proliferation assay (CellTiter Glo, 72 hours); format: cell-based; details: Homo sapiens, A-431, 72 h, cell proliferation, A431, 72 hours, Table 2; read-out: A431 IC50
Method: as §2
RPMI 1640 and 10% FBS and 1% PS; DMEM and 10% FBS and 1% PS.
a) Dilute the test compound (20 mM stock solution) to 10 mM with 100% DMSO as the starting concentration, and then serially dilute 3 times with a “9+0” concentration in 96-well dilution plate (Cat #P-05525, Labcyte);
b) Dilute compound solution thereof to 1:100 (1:20 for comparative compound 1 and compounds 1-38) in medium to prepare 10-fold working solution;
as §3, §4
a) Compounds prepared at step 2 were added to cell plate with 15 μl per well, the final concentrations were 1000, 333, 111.1, 37, 12.3, 4.1, 1.4, 0.5, 0.2 and 0 nM, and the final concentration of DMSO was 0.1%. The blank control well was a culture medium (0.1% DMSO) (the blank control well of comparative compound 1 and compounds 1-38 was a culture medium (0.5% DMSO).
as §5, §6, §7, §8, §9, §10
Fitting compound IC50 from nonlinear regression equation:
as §11, §12

Sequence of EGFRΔ19del/T790M/C797S (P00533 with tags, fused parts or gaps DEL746-750/T790M/C797S, form open): as above

Compound | IC50 [1] [nM] | IC50 [2] [nM] | IC50 [3] [nM] | GI50 [4] [nM] | IC50 [5] [nM]
CCc1cc(Nc2ncc(Br)c(Nc3ccc(-c4ccc(C5CC5)nn4)cc3P(C)(C)=O)n2)c(OC)cc1N1CCC(N2CCN(C)CC2)CC1 [Compound 36, (2-((5-Bromo-2-((5-ethyl-2-methoxy-4-(4-(4-methylpiperazin-1-yl)piperidin-1-yl)phenyl)amino)pyrimidin-4-yl)amino)-5-(6-cyclopropylpyridazin-3-yl)phenyl)dimethylphosphine oxide] | 0.2 | 35.5 | 219 | 22.3 | 4640
CCc1cc(Nc2ncc(Br)c(Nc3ccc(-c4ccc(N(C)C)nn4)cc3P(C)(C)=O)n2)c(OC)cc1N1CCC(N2CCN(C)CC2)CC1 [Compound 37, (2-((5-Bromo-2-((5-ethyl-2-methoxy-4-(4-(4-methylpiperazin-1-yl)piperidin-1-yl)phenyl)amino)pyrimidin-4-yl)amino)-5-(6-(dimethylamino)pyridazin-3-yl)phenyl)dimethylphosphine oxide] | 0.3 | 28.8 | 263 | 17.4 | > 10000
CCc1cc(Nc2ncc(Br)c(Nc3ccc(-c4cnsc4)cc3P(C)(C)=O)n2)c(OC)cc1N1CCC(N2CCN(C)CC2)CC1 [Compound 38, (2-((5-Bromo-2-((5-ethyl-2-methoxy-4-(4-(4-methylpiperazin-1-yl)piperidin-1-yl)phenyl)amino)pyrimidin-4-yl)amino)-5-(isothiazol-4-yl)phenyl)dimethylphosphine oxide] | 0.3 | 11.1 | 64 | 11.2 | 711
CCc1cc(Nc2ncc(Cl)c(Nc3ccc(-c4nnc(C)o4)cc3P(C)(C)=O)n2)c(OC)cc1N1CCC(N2CCN(C)CC2)CC1 [Compound 45, (2-((5-Chloro-2-((5-ethyl-2-methoxy-4-(4-(4-methylpiperazin-1-yl)piperidin-1-yl)phenyl)amino)pyrimidin-4-yl)amino)-5-(5-methyl-1,3,4-oxadiazol-2-yl)phenyl)dimethylphosphine oxide] | 0.4 | 31.5 | 124 | 26.2 | 1080
CCc1cc(Nc2ncc(Br)c(Nc3ccc(-c4cn(C)c5ncccc45)cc3P(C)(C)=O)n2)c(OC)cc1N1CCC(N2CCN(C)CC2)CC1 [Compound 46, (2-((5-Bromo-2-((5-ethyl-2-methoxy-4-(-4-(4-methylpiperazin-1-yl)piperidin-1-yl)phenyl)amino)pyrimidin-4-yl)amino)-5-(1-methyl-1H-pyrrolo[2,3-b]pyridin-3-yl)phenyl)dimethylphosphine oxide] | 1.7 | 47.6 | 628 | 30.3 | 2300
CCc1cc(Nc2ncc(Br)c(Nc3ccc(-c4cnn(CCN5CCOCC5)c4)cc3P(C)(C)=O)n2)c(OC)cc1N1CCC(N2CCN(C)CC2)CC1 [Compound 47, (2-((5-Bromo-2-((5-ethyl-2-methoxy-4-(4-(4-methylpiperazin-1-yl)piperidin-1-yl)phenyl)amino)pyrimidin-4-yl)amino)-5-(1-(2-morpholinoethyl)-1hydro-pyrazol-4-yl)phenyl)dimethylphosphine oxide] | 0.9 | 15.5 | 60 | 23.4 | 771
CCc1cc(Nc2ncc(Br)c(Nc3ccc(-c4ccccc4C#N)cc3P(C)(C)=O)n2)c(OC)cc1N1CCC(N2CCN(C)CC2)CC1 [Compound 51, 4′-((5-Bromo-2-((5-ethyl-2-methoxy-4-(4-(4-methylpiperazin-1-yl)piperidin-1-yl)phenyl)amino)pyrimidin-4-yl)amino)-3′-(dimethylphosphoryl)-[1,1′-biphenyl]-2-carbonitrile] | 1.3 | 30.8 | 269 | 23.5 | 578
CCc1cc(Nc2ncc(Br)c(Nc3ccc(-c4cn(C)nc4OC)cc3P(C)(C)=O)n2)c(OC)cc1N1CCC(N2CCN(C)CC2)CC1 [Compound 63] | 1.3 | 38.8 | 335 | 24.5 | 512
CCc1cc(Nc2ncc(Br)c(Nc3ccc(-c4cn(C)nc4C#N)cc3P(C)(C)=O)n2)c(OC)cc1N1CCC(N2CCN(C)CC2)CC1 [Compound 64, 4-(4-((5-Bromo-2-((5-ethyl-2-methoxy-4-(4-(4-methylpiperazin-1-yl)piperidin-1-yl)phenyl)amino]pyrimidin-4-yl)amino)-3-(dimethylphosphoryl)phenyl)-1-methyl-1H-pyrazole-3-carbonitrile] | 0.8 | 43.1 | 330 | 47.3 | > 10000
CCc1cc(Nc2ncc(Br)c(Nc3ccc(-c4ncc(C(C)C)cn4)cc3P(C)(C)=O)n2)c(OC)cc1N1CCC(N2CCN(C)CC2)CC1 [Compound 73, (2-((5-Bromo-2-((5-ethyl-2-methoxy-4-(4-(4-methylpiperazin-1-yl)piperidin-1-yl)phenyl)amino)pyrimidin-4-yl)amino)-5-(5-isopropylpyrimidin-2-yl)phenyl)dimethylphosphine oxide] | 0.9 | 38 | 223 | 39.5 | 1530
CCc1cc(Nc2ncc(Br)c(Nc3ccc(-c4cnc(N(C)C)nc4)cc3P(C)(C)=O)n2)c(OC)cc1N1CCC(N2CCN(C)CC2)CC1 [Compound 74, (2-((5-Bromo-2-((5-ethyl-2-methoxy-4-(4-(4-methylpiperazin-1-yl)piperidin-1-yl)phenyl)amino)pyrimidin-4-yl)amino)-5-(2-(dimethylamino)pyrimidin-5-yl)phenyl)dimethylphosphine oxide] | 0.3 | 24 | 186 | 15.7 | 1560
CCOc1ncc(-c2ccc(Nc3nc(Nc4cc(CC)c(N5CCC(N6CCN(C)CC6)CC5)cc4OC)ncc3Br)c(P(C)(C)=O)c2)cn1 [Compound 76] | 0.3 | 36 | 114 | 37.4 | 1520
CCc1cc(Nc2ncc(Br)c(Nc3ccc(-c4cnc(C5CC5)cn4)cc3P(C)(C)=O)n2)c(OC)cc1N1CCC(N2CCN(C)CC2)CC1 [Compound 79, (2-((5-Bromo-2-((5-ethyl-2-methoxy-4-(4-(4-methylpiperazin-1-yl)piperidin-1-yl)phenyl)amino)pyrimidin-4-yl)amino)-5-(5-cyclopropylpyrazin-2-yl)phenyl)dimethylphosphine oxide] | 0.4 | 18.1 | 191 | 10.7 | 5650
CCc1cc(Nc2ncc(Br)c(Nc3ccc(-c4cnc(C)cn4)cc3P(C)(C)=O)n2)c(OC)cc1N1CCC(N2CCN(C)CC2)CC1 [Compound 80, (2-((5-Bromo-2-((5-ethyl-2-methoxy-4-(4-(4-methylpiperazin-1-yl)piperidin-1-yl)phenyl)amino)pyrimidin-4-yl)amino)-5-(5-methylpyrazin-2-yl)phenyl)dimethylphosphine oxide] | 0.2 | 12.8 | 81 | 8.2 | 4610
CCc1cc(Nc2ncc(Br)c(Nc3ccc(-c4cnc(C)c(C)n4)cc3P(C)(C)=O)n2)c(OC)cc1N1CCC(N2CCN(C)CC2)CC1 [Compound 81, (2-((5-Bromo-2-((5-ethyl-2-methoxy-4-(4-(4-methylpiperazin-1-yl)piperidin-1-yl)phenyl)amino)pyrimidin-4-yl)amino)-5-(5,6-dimethylpyrazin-2-yl)phenyl)dimethylphosphine oxide] | 0.6 | 12.6 | 142 | 16.8 | 875
